# From paper PMC9414676, “Experimental Studies Indicate That ST-2223, the Antagonist of Histamine H3 and Dopamine D2/D3 Receptors, Restores Social Deficits and Neurotransmission Dysregulation in Mouse Model of Autism” (Pharmaceuticals, 2022)
# Entries after “also recorded” stand apart in the source; their conditions may differ.
# Experiments:
# Assay type in all cases: in vivo
# [1] = tested on: BTBR mice; assay: Social approach test (SAT), sociability (novel mouse vs novel object)
# Experimental: (§1) All the mice were randomly divided into nine groups of 5–7 mice each. The mice were injected intraperitonially once daily for 21 days with different doses of ST2223 (2.5, 5, and 10 mg/kg, i.p.), ARP 1 mg/kg or vehicle (1% DMSO in 0.9% normal saline). Group I, B6 mice were injected with vehicle served as control. Group II, BTBR mice were treated with vehicle. Groups III–V, BTBR mice received i.p. injections of different doses of ST2223 (2.5, 5, and 10 mg/kg, i.p.), respectively. Group VI, BTBR mice were injected with ARP (1 mg/kg, i.p.). For abrogation studies, Group VII, BTBR mice were treated with ST2223 (5 mg/kg, i.p.) along with RAM (10 mg/kg, i.p.). Group VIII, B6 mice were co-injected with vehicle and RAM (10 mg/kg, i.p). All treatments and vehicle (VEH) were administered 30–45 min before each behavioral test. The doses of these drugs were selected based on previous reports. Behavioral testing was performed between 9:00 am and 3:00 pm in an order randomized by group and in the following sequence: social approach test (SAT) and open field locomotor test (OFL). The chronic treatment started one week before the behavioral test and was continued for a total of 21 days as described above (Figure 7). Following behavioral tests, i.e., on day 21 of systemic treatment, five of the animals were sacrificed. The animals were deeply anesthetized with pentobarbital (40 mg/kg, i.p., body weight). To wash out the blood, cardiac perfusion was carried out using 0.01 M phosphate-buffered saline (PBS) at pH 7.4. The brains were quickly removed and placed on an ice plate, where the cerebellum, hippocampus, prefrontal cortex, and striatum were excised from the brain and snap-frozen in liquid nitrogen for later LC-MS/MS analysis.
# The social approach test (SAT) was performed using an automated three-chamber device (EthoVision® Software, Noldus, The Netherlands) as previously described. The transparent polycarbonate chamber is rectangular and is composed of three interconnected partitions (homemade), which are separated by two sliding doors. In brief, after 10 min of habituation, the study mouse was placed in the central chamber with the doors opened, and the mouse was given the choice to interact with either an empty plastic cup located in one side chamber, referred to as a novel object (NO), or a similar plastic cup with an unfamiliar mouse inside it located in the opposite chamber, referred to as a novel mouse (NM), which was matched in age, sex, and strain with test mouse. To avoid innate side preferences, the plastic cup for NO and NM were randomly placed in either chamber and the placement was changed between studies and between mice. For 10 min, the test mouse was allowed to explore all three chambers and cups, and the time spent interacting with NO and NM (sniffing) was automatically recorded by EthoVision® Software. Immediately after this session, a novel mouse is kept in the empty cup and is referred to as novel mouse (NM), and the mouse in the other cup from the earlier session is referred to as familiar mouse (FM). The study mouse is allowed to explore the three chambers for 10 min, and the time spent for interacting with both mice was automatically recorded, to assess social novelty preference. Eight groups of 7 mice/group were used for the SAT. To allow the direct comparison of social behavior between the treated groups, the sociability index (SI) and social novelty index (SNI) were calculated with the following formula, as previously described: SI=(Time exploring NM−Time exploring NO)/(Time exploring NM+Time exploring NO) SNI=(Time exploring NM−Time exploring FM)/(Time exploring NM+Time exploring FM)
# [2] = tested on: BTBR mice; assay: Social approach test (SAT), social novelty preference (novel mouse vs familiar mouse); settings: for preference to novel mouse (NM) over familiar mouse (FM) vs VEH-treated BTBR mice: p < 0.001
# Experimental: as §1
# The social approach test (SAT) was performed using an automated three-chamber device (EthoVision® Software, Noldus, The Netherlands) as previously described. The transparent polycarbonate chamber is rectangular and is composed of three interconnected partitions (homemade), which are separated by two sliding doors. […] For 10 min, the test mouse was allowed to explore all three chambers and cups, and the time spent interacting with NO and NM (sniffing) was automatically recorded by EthoVision® Software. […] The study mouse is allowed to explore the three chambers for 10 min, and the time spent for interacting with both mice was automatically recorded, to assess social novelty preference. […] To allow the direct comparison of social behavior between the treated groups, the sociability index (SI) and social novelty index (SNI) were calculated with the following formula, as previously described: SI=(Time exploring NM−Time exploring NO)/(Time exploring NM+Time exploring NO) SNI=(Time exploring NM−Time exploring FM)/(Time exploring NM+Time exploring FM)
# [3] = tested on: histamine levels in BTBR mice brain; assay: Histamine levels by LC-MS/MS in brain regions; parameters: key to Histamine level: ↔: No significant alterations; ↑: significant increase; ↑↑: additional significant increase vs. ST-2223-treated mice; ↓: significant decrease; settings: ST-2223 5 mg/kg i.p. chronic, vs VEH-treated BTBR mice
# Experimental: as §1
# Perfusion was done on anesthetized animals using 1X PBS as described previously. Different regions of the brain were snap frozen. Frozen tissues were then weighed and homogenized in a 10-fold volume of acetonitrile. For 50mg of tissue, 500 µL of acetonitrile and Internal standard mix were added and homogenized. Homogenates were centrifuged at 15,000 rcf for 15 min at 4 °C. Tissue levels of dopamine, acetylcholine, histamine, and their metabolites were assessed using LC-MS/MS. LC-MS/MS analysis was conducted utilizing Waters BEH C18 COLUMN (2.1 × 100 mm, 1.7 µm) using Waters Acquity UPLC Binary Solvent Manager and FTN Sample Manager. The system was run in gradient mode with mobile phase A consisting of LC-MS GRADE WATER + 0.1% FORMIC ACID and mobile phase B consisting of 100% ACETONITRILE. Mobile phase was duly filtered through 0.2 µm filter and degassed ultrasonically for 15 min prior to use. Separations were performed at room temperature with 0.3 mL/min flow rate gradient starting with 90% of A for up to 0.5 min. Then, % of A was decreased gradually until it reached 20% at 2.5 min after which at 3 min %A was brought back to the initial condition and left for equilibration for 2 more minutes before the next injection (total 5 min run time). The injection volume was kept at 1 µL. Mass spectrometric detection was performed in multiple reaction monitoring (MRM) mode with positive electrospray ionization (ESI+) on Xevo TQS mass spectrometer (Waters, Milford, MA) equipped with an electrospray ionization (ESI) source and triple quadrupole mass analyzer. MRM transitions and instrument parameters were set by tuning the instrument by infusing each analyte. MRM transitions taken for quantification were 146.2 > 87.1 for Acetylcholine, 112.2 > 95.2 for Histamine, 154.1 > 137.2 for Dopamine, 150.2 > 91.3 for Acetylcholine D4, and […] > 99.3 for Histamine D4. Capillary Voltage, Source Offset, Source Temperature, De solvation Temperature, Cone Gas Flow, De solvation Gas Flow, Collision Gas Flow, Nebulizer Gas Flow were set as 3.0 (kV), 60.0 (V), 150 (°C), 550 (°C), 150 (L/Hr), 1000 (L/Hr), 0.13 (mL/min), and 7 (Bar), correspondingly. […]
smiles,measurement,setting,value
"COc1ccccc1N1CCN(CCCCNC(=O)c2ccc3cc(OCCCN4CCCCC4)ccc3c2)CC1 [ST-2223, N-(4-(4-(2-methoxyphenyl)piperazin-1-yl)butyl)-6-(3-(piperidin-1-yl)propoxy)-2-naphthamide]",time spent with novel mouse (NM) vs novel object (NO),"[1]; ST-2223 2.5 mg/kg i.p. chronic, p = 0.48",unsuccessful to exert remarked improvement
same,exploring time spent with NM vs VEH-treated BTBR mice,"[1]; ST-2223 2.5 mg/kg i.p. chronic, p > 0.05",not a significant level
same,exploring time spent with NM vs VEH-treated BTBR mice,"[1]; ST-2223 5 mg/kg i.p. chronic, p < 0.001",significantly improved exploring time spent with NM
same,time spent with novel mouse (NM) vs novel object (NO),"[1]; ST-2223 5 mg/kg i.p. chronic, p < 0.01",significantly enhanced time spent with the NM
same,sociability index (SI) vs VEH-treated BTBR mice,"[1]; ST-2223 5 mg/kg i.p. chronic, p < 0.05",significant improvement in sociability
same,time spent with novel mouse (NM) vs novel object (NO),"[1]; ST-2223 10 mg/kg i.p. chronic, p = 0.53",unsuccessful to exert remarked improvement
same,social novelty index (SNI),"[2]; ST-2223 5 mg/kg i.p. chronic, no significant difference to control B6",significantly improved social novelty performance
same,preference to novel mouse (NM) over familiar mouse (FM) vs VEH-treated BTBR mice,[2]; ST-2223 5 mg/kg i.p. chronic,enhanced preference to stranger NM over FM
same,preference to novel mouse (NM) over familiar mouse (FM) vs VEH-treated BTBR mice,[2]; ST-2223 10 mg/kg i.p. chronic,enhanced preference to stranger NM over FM
same,Histamine level,[3]; Cerebellum,↑ ^b
same,Histamine level,[3]; Hippocampus,↔
same,Histamine level,[3]; Prefrontal cortex,↔
same,levels of histamine in brain regions,[3]; 5 mg/kg,significantly increased the levels of histamine in cerebellum and striatum; also recorded: without significant enhancement of brain histamine in hippocampal tissues
same,Histamine level,[3]; Striatum,↑ ^b
